Data on 1 molecule can be found in patent publication US20030055067A1, “Antifungal composition with enhanced bioavailability” (SCHERING CORPORATION, priority 2001, published 2003).

Data set [1] is described as follows: Lipophilicity and water solubility (background statement). Format: physicochemical.
Data set [2] in a line: Rate of sedimentation of the oral suspension (HPLC assay after shaking and rest). It is filed as physicochemical. Conditions: after 3 days. The method, then:
The rate of sedimentation of the liquid suspension of the present invention was determined as set forth below. Two bottles containing the suspension of the present invention were shaken and left to rest. The bottles were then sampled immediately (time zero), then after 5 minutes, 10 minutes, 30 minutes, 60 minutes and after 72 hours (three days) post shaking. The levels of posaconazole and of the preservative (Sodium Benzoate) in these samples were assayed by HPLC. HPLC methods of detection are well-known to one of skill in the art.

The subject of data set [3] is Aspergillis, Candida, Cryptococcus, Fusarium, and other opportunistic fungi. As to conditions: broad range of fungi; cited from earlier work.
Data set [4] can be described thus: Randomized, open-label, 4-way crossover, single-dose bioavailability and food effect study. Format: in vivo, healthy subjects. Conditions: for 0-hour plasma concentration of posaconazole: likely carry-over from previous doses. From the text: The relative bioavailability of the posaconazole oral suspension was compared to a solid dosage form of posaconazole in healthy subjects. The first objective was to determine the relative bioavailability of posaconazole given as an oral suspension compared to an oral solid formulation when administered with a high-fat breakfast. The second objective was to determine the effect of high-fat and non-fat food relative to fasting conditions on the oral bioavailability of the compound of formula I when given as an oral suspension. Twenty healthy subjects completed this randomized, open-label, 4-way crossover, single-dose bioavailability and food effect study of posaconazole. Subjects received each of the following four treatments separated by at least a 7 day washout period: [table] Subjects were randomized to either remain fasted (Treatment A), to receive a standardized high fat breakfast (Treatment B or D) or a standardized non-fat breakfast (Treatment C). Meals were consumed in a 20-minute period prior to the morning drug administration and subjects received the appropriate treatment within 5 minute of completing the breakfast. […] The area under the plasma concentration-time curve from time zero to the final quantifiable sampling time [AUC(tf)] was calculated using the linear trapezoidal method and extrapolated to infinity (I) as follows: [formula] where C(tf) is the estimated concentration determined from linear regression at time, tf. Total body clearance was calculated by the following: CL=Dose/AUC(I) The apparent volume of distribution ([…]) was calculated from the ratio of the total body clearance to the terminal phase rate constant (K). Summary statistics were calculated for the plasma suspension formulation of the present invention compared to a prior art tablet formulation concentration-time data at each time point and the derived pharmacokinetic parameters. The original scale and log-transformed Cmax and AUC values were analyzed using an analysis of variance (ANOVA). […]

Each structure is given as a SMILES string.

For the molecule `CC[C@@H]([C@H](C)O)n1ncn(-c2ccc(N3CCN(c4ccc(OC[C@@H]5CO[C@@](Cn6cncn6)(c6ccc(F)cc6F)C5)cc4)CC3)cc2)c1=O` [posaconazole], the lipophilicity entry in data set [1] is given as “highly lipophilic”. Further, the water solubility result in data set [1] is on record as “extremely low”. In addition, the sedimentation of posaconazole result in data set [2] is listed as “not sedimented”. Moreover, in data set [3], the antifungal activity entry is recorded as “potent”. The “0-hour plasma concentration of posaconazole” value turned out to be 22.5 ng/mL in data set [4] (Subject 20, Treatment A) and 8.5 ng/mL in data set [4] (Subject 20, Treatment B). The “mean terminal t½” value in data set [4] (independent of treatment) is reported as “about 22 hour”.
